Data taken from PMC6151788, “Biological Evaluation and Molecular Docking of Protocatechuic Acid from Hibiscus sabdariffa L. as a Potent Urease Inhibitor by an ESI-MS Based Method” (Molecules : A Journal of Synthetic Chemistry and Natural …, 2017).

Tests used:
Jack bean urease (JBU) [1] = biological target: T1, Jack bean urease (JBU) (Canavalia ensiformis, UniProt P07374); experiment: ESI-MS urea depletion assay with purchased jack bean urease; standard inhibitor; type: biochemical
T1 construct: JBU-type III from Canavalia ensiformis

Jack bean urease (JBU) [2] = biological target: T1, Jack bean urease (JBU); experiment: ESI-MS urea depletion assay with purchased jack bean urease; type: biochemical

T1 sequence (P07374 whole entry, looked up): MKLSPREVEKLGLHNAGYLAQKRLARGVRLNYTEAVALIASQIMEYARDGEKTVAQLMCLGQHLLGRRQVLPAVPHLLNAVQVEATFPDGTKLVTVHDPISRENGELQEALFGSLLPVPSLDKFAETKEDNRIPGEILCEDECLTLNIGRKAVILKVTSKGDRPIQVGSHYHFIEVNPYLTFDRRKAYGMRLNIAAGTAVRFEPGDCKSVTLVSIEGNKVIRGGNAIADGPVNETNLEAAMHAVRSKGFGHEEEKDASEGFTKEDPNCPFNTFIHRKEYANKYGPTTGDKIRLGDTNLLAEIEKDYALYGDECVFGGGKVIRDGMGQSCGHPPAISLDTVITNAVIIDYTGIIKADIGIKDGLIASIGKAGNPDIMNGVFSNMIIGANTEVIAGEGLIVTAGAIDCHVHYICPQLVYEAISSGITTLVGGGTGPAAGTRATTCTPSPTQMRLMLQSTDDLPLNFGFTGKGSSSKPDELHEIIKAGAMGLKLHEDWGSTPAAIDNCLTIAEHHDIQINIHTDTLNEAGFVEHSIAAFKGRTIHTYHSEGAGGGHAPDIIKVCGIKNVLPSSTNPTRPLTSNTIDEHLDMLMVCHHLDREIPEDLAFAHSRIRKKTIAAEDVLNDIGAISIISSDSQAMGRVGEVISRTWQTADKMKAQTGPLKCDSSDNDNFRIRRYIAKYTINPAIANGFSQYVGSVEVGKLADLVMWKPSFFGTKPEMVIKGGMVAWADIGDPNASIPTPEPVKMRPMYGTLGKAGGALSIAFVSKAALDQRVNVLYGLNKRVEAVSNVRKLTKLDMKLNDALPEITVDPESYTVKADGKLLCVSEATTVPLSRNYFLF

Compound	IC50 (Jack bean urease (JBU) [1])	IC50 (Jack bean urease (JBU) [2])
CC(=O)NO [AHA, acetohydroxamic acid]	3.2 µM	
O=C(O)c1ccc(O)c(O)c1 [PCA, 3,4-dihydroxybenzoic acid]		1700 nM
